# Assay results reported in paper PMC6005348, “Betahistine Treatment in a Cat Model of Vestibular Pathology: Pharmacokinetic and Pharmacodynamic Approaches” (Frontiers in Neurology, 2018).
# Like-named read-outs stand apart in the source and are kept apart here.
# Columns and labels:
# [1] = Plasma pharmacokinetics of betahistine and 2-PAA after oral dosing in UVN cats (LC-MS/MS, non-compartmental analysis); assay type: in vivo, cat; conditions: for AUC / Cmax / Tmax / half-life: male, plasma, po; for half-life: read-out: Betahistine t1/2 (converted)
# Experimental: The experiments were performed on nine adult male UVN cats randomly allocated into three groups of cats. Three groups of three adult male cats received 0.2 mg/kg betahistine (N = 3: cats 1–3), 2 mg/kg betahistine (N = 3: cats 4–6), or 0.2 mg/kg betahistine plus 1 mg/kg selegiline (N = 3: cats 7–9). […] The samples were frozen at −80°C until analysis. Pharmacokinetic parameters of betahistine and its major metabolite 2-PAA were calculated by applying non-compartmental analysis.
# Betahistine and its internal standard, betahistine-d3, were extracted by liquid/liquid extraction from plasma under alkaline conditions toward 1-butanol/isooctane, followed by a second liquid/liquid extraction step of acidic 1-butanol/isooctane toward water. Betahistine concentration in plasma was analyzed using a validated LC-MS/MS method. In brief, an API 4000 (Applied Biosystems) mass spectrometer coupled with a Symbiosis HPLC system (Sparks, Emmen, The Netherlands) was employed to analyze betahistine. Extracts (100 μl) were injected into a XTerra RP18 150 ^* 4.6 mm, 3.5 μm column (Waters, Etten-Leur, The Netherlands) and separated at 30°C under isocratic conditions using an aqueous metanol solution containing 0.5 mM ammonium formate as mobile phase. Betahistine was quantified by a tandem mass spectrometer in positive MRM. Parent daughter transition was followed for betahistine (m/z 137 > 94). Betahistine-d3 dihydrochloride was used as internal standard. Pharmacokinetic parameters of betahistine were calculated by applying non-compartmental analysis using the validated PK software WinNonLin, version 5.23 (Pharsight Corporation, Mountain View, CA, USA).
# Cmax and tmax were derived directly from the plasma concentration-time curves. Linear trapezoidal rule was used to calculate AUC0-t during the part of the curve with increasing plasma concentrations. For the descending part of the curve, the log-linear trapezoidal rule was used. Calculation of the elimination half-life (t1/2) was evaluated as ln 2/kel, with kel as the slope of the terminal phase of the plasma concentration-time curve.
# [2] = system: histidine decarboxylase (HDC); test: Number of HDC immunoreactive neurons in the tuberomammillary nuclei (immunohistochemistry); assay type: in vivo, cat
# Experimental: […] animals were used for the immunohistochemical study to label the histamine synthesizing enzyme: the HDC. This study was performed on the same four groups of cats used for the behavioral investigation (cats 10–22). These lesioned animals (left UVN) were all killed 40 days after vestibular lesion. A supplementary group of intact animals (n = 4: cats 23–26) was used as a negative control group without vestibular lesion.
# Cats were deeply anesthetized with ketamine dihydrochloride (20 mg/kg, i.m., Rhône Poulenc Mérieux) and perfused under isoflurane intubation (2%), through the ascending aorta, with 1 L of normal saline solution (0.9%) containing 0.1% heparine, and thereafter with 2 L of ice-cold 0.1 M phosphate buffer (PB, pH 7.4) including 4% paraformaldehyde and 0.2% picric acid.
# After removal from the skull, the brain was cut into several blocks and post-fixed overnight at 4°C in the same solution. The blocks were then rinsed and cryoprotected by increasing concentrations (10, 20, and 30%) of sucrose solution in 0.1 M PB for 72 h at 4°C. Blocks containing the TMN were rapidly frozen with CO2 gas, and coronal sections 20 μm thick were cut in a cryostat (Leica, Rueil-Malmaison, France).
# Free-floating sections were first incubated three times for 5 min in PBS (phosphate buffer saline 0.1 M), then for 1 h in 10% BSA, and 0.25% Triton X-100. Thereafter, sections were incubated under continuous agitation 24 h at 4°C with a Guinea pig polyclonal anti-HDC antiserum (1:1,000 in PBS containing 2% BSA and 0.25% Triton; Fisher scientific). After several rinses (3 × 5 min in PBS with 2% BSA and 3 × 5 min in PBS with 5% BSA) sections were incubated for 1 h, respectively, in biotinylated rabbit anti-guinea pig IgG (1:200 in PBS containing 2% BSA; from Vector Laboratories, Burlingame, CA). […]
# The tuberomammillary nuclei (TMN) of the posterior hypothalamus, the sole structure in the brain containing histaminergic neurons, were identified using Berman's stereotaxic atlas ([38]). […] Serial sections in the TMN of each animal were analyzed, five sections at each of the five rostrocaudal levels examined (A12, A11, A10.2, A9.5, and A8.3) being quantified. The number of HDC immunoreactive neurons was quantified by means of a computer-assisted image analysis (DMLB microscope: Leica Microsystems, Wetzlar, Germany) equipped with a DXM 1200 Nikon high-resolution digital camera (1,024 × 1,024 pixels; Nikon, Tokyo, Japan) interfaced to a PC computer employing image software for capturing and processing the images (Lucia G, Nikon, Champigny-sur-Marne, France). Quantification of the immunolabeled neurons was performed via a gray-level method by adjusting a threshold brightness value, and only cells labeled with a gray value above this threshold were taken into account. Reproducibility was assessed by comparing the same data analyzed independently by two researchers blind to the animals' groups. The specific immunolabeling was quantified in each section as the number of labeled neurons, and was automatically computed and evaluated thereafter as the mean (± SEM) for each side, each cat, and each subgroup of cats. To eliminate quantification problems due to potentially asymmetric slides, data were collected from symmetrical slides only, and symmetry was assessed on the basis of the number of cells stained with cresyl violet on each side. […]
# monoamine oxidase a/b = conditions: background statement, no reference given; cited from earlier work
# [3] = cats, abstract statement, up to
# [4] = 0.2 mg/kg, UVN cats, oral betahistine 0.2 mg/kg alone, day 1
# [5] = 2 mg/kg, UVN cats, oral betahistine 2 mg/kg alone, day 1
# [6] = 2 mg/kg, UVN cats, oral betahistine 2 mg/kg alone, day 21
# [7] = UVN cats, oral betahistine 0.2 mg/kg plus selegiline 1 mg/kg, day 1
# [8] = UVN cats, oral betahistine 0.2 mg/kg plus selegiline 1 mg/kg, day 21
# [9] = UVN D40, betahistine 2 mg/kg, p < 0.0001
compound,measurement,setting,value
"CNCCc1ccccn1 [Betahistine, betahistine]",Cmax- and AUC-values in cats compared to human,[1]; cats higher than human,40–50 times
same,Increase of betahistine AUC by co administration of selegiline,[1]; [3],≤ 180 fold
same,Increase of betahistine Cmax by co administration of selegiline,[1]; [3],up to 146 fold
same,AUC,"[1]; 0.2 mg/kg, PK/PD table, DAY 2, BH 0.2 mg/kg, read-out: AUC (betahistine)",3.65 ng·h/mL
same,Cmax,"[1]; 0.2 mg/kg, PK/PD table, DAY 2, BH 0.2 mg/kg, read-out: Cmax (betahistine)",4.11 ng/mL
same,Tmax,[1]; [4],0.25 h
same,AUC,"[1]; 0.2 mg/kg, UVN cats, oral betahistine 0.2 mg/kg alone, day 1, read-out: Betahistine AUC",3.7 ± 2.1 ng·h/mL
same,Cmax,"[1]; 0.2 mg/kg, UVN cats, oral betahistine 0.2 mg/kg alone, day 1, read-out: Betahistine Cmax",4.1 ± 2.9 ng/mL
same,half-life,[1]; [4],1.9 ± 0.7 h
same,Tmax,"[1]; 0.2 mg/kg, UVN cats, oral betahistine 0.2 mg/kg alone, day 21",2 h
same,half-life,"[1]; 0.2 mg/kg, UVN cats, oral betahistine 0.2 mg/kg alone, day 21, n = 2",4 h
same,AUC,"[1]; 0.2 mg/kg, UVN cats, oral betahistine 0.2 mg/kg alone, day 21, read-out: Betahistine AUC",1.5 ± 0.6 ng·h/mL
same,Cmax,"[1]; 0.2 mg/kg, UVN cats, oral betahistine 0.2 mg/kg alone, day 21, read-out: Betahistine Cmax",0.6 ± 0.4 ng/mL
same,AUC,"[1]; 2 mg/kg, PK/PD table, DAY 2, BH 2.0 mg/kg, read-out: AUC (betahistine)",26.7 ng·h/mL
same,Cmax,"[1]; 2 mg/kg, PK/PD table, DAY 2, BH 2.0 mg/kg, read-out: Cmax (betahistine)",54 ng/mL
same,Tmax,[1]; [5],0.25 h
same,AUC,"[1]; 2 mg/kg, UVN cats, oral betahistine 2 mg/kg alone, day 1, read-out: Betahistine AUC",19.7 ± 5 ng·h/mL
same,Cmax,"[1]; 2 mg/kg, UVN cats, oral betahistine 2 mg/kg alone, day 1, read-out: Betahistine Cmax",23.8 ± 11.2 ng/mL
same,half-life,[1]; [5],3 ± 2.6 h
same,Tmax,[1]; [6],0.5 h
same,AUC,"[1]; 2 mg/kg, UVN cats, oral betahistine 2 mg/kg alone, day 21, read-out: Betahistine AUC",51 ± 42.4 ng·h/mL
same,Cmax,"[1]; 2 mg/kg, UVN cats, oral betahistine 2 mg/kg alone, day 21, read-out: Betahistine Cmax",38.9 ± 34.9 ng/mL
same,half-life,[1]; [6],1.6 ± 0.3 h
same,AUC,"[1]; PK/PD table, DAY 2, BH 0.2 mg/kg + Selegiline 1 mg/kg, read-out: AUC (betahistine)",19.7 ng·h/mL
same,Cmax,"[1]; PK/PD table, DAY 2, BH 0.2 mg/kg + Selegiline 1 mg/kg, read-out: Cmax (betahistine)",23.8 ng/mL
same,Tmax,[1]; [7],0.25 h
same,AUC,"[1]; UVN cats, oral betahistine 0.2 mg/kg plus selegiline 1 mg/kg, day 1, read-out: Betahistine AUC",26.7 ± 24.1 ng·h/mL
same,half-life,[1]; [7],2.5 ± 0.5 h
same,Tmax,[1]; [8],1 h
same,AUC,"[1]; UVN cats, oral betahistine 0.2 mg/kg plus selegiline 1 mg/kg, day 21, read-out: Betahistine AUC",6.7 ± 5.1 ng·h/mL
same,Cmax,"[1]; UVN cats, oral betahistine 0.2 mg/kg plus selegiline 1 mg/kg, day 21, read-out: Betahistine Cmax",13.2 ± 13 ng/mL
same,half-life,[1]; [8],1.9 ± 0.4 h
same,Betahistine Cmax with versus without selegiline co-administration,"[1]; repeated administration, day 21",65 fold
same,Increase of betahistine AUC0−7h by selegiline 1 mg/kg,"[1]; single administration, day 1",~ 5 fold
same,Increase of betahistine Cmax by selegiline 1 mg/kg,"[1]; single administration, day 1",~ 5 fold
same,"Number of HDC immunoreactive neurons, ipsilateral TMN","[2]; UVN D40, betahistine 0.2 mg/kg without selegiline, UVN untreated 151.78 ± 3.29",151.3 ± 1.51
same,"Number of HDC immunoreactive neurons, contralateral TMN","[2]; UVN D40, betahistine 0.2 mg/kg without selegiline, UVN untreated 152.4 ± 3.63",151.1 ± 1.63
same,"Number of HDC immunoreactive neurons, contralateral TMN",[2]; [9],191.68 ± 2.04
same,"Number of HDC immunoreactive neurons, ipsilateral TMN",[2]; [9],190.85 ± 1.58
same,"Number of HDC immunopositive neurons on both sides, on average","[2]; lesion and betahistine 2 mg/kg, 40 days post-lesion, compared to UVN untreated cats as worded",210%
same,Share of the drug fastly metabolized by the monoamine oxidase a/b,monoamine oxidase a/b,95%
